Assay results published in patent US11945822B2, “Pyrazolo-triazine and/or pyrazolo-pxrimidine derivatives as selective inhibitor of cyclin dependent kinase” (QURIENT CO., LTD., priority 2018, dated 2024).

System: MV4-11
Assay: Cellular MV4-11 viability assay (CellTiter-Glo, 72 hours)
Type: cell-based
Settings: Homo sapiens
Experimental: (§1) All cell lines were routinely tested for mycoplasma.
(§2) The effect of the CDK7 inhibitor to inhibit the growth of target cancer cells was evaluated through the 72 hours time period of viability assay. Briefly, the candidate cell line ware plated in 96 well plate at the following density of cells respectively. […] DMSO solvent without compound served as a control and final DMSO concentration less than 0.1%. After 72 hours of incubation at 37° C., 5% CO2 incubator, cells were analyzed for the viability using the CellTiter-Glo Luminescent Cell Viability Assay (Promega, Cat #G7570). All viability assays were performed in duplicate and Luminescence was read using an Envision (Perkin Elmer, USA). Data was analyzed using XLfit software.

Row | IC50 [nM] | SMILES
1 | < 1000 | CC(C)c1cnn2c(NCc3c(Cl)cccc3Cl)nc(N3CCC(N)CC3)nc12 [Compound 257]
2 | < 1000 | CC(C)c1cnn2c(NCc3c(Cl)cccc3-n3cc(N4CCOCC4)cn3)nc(N3CCC(N)CC3)nc12 [Compound 203]
3 | < 1000 | Cc1cccc(-c2cc(CO)nn2C)c1CNc1nc(N2CCC(N)CC2)nc2c(C(C)C)cnn12 [Compound 214]
4 | 1000 to 10000 | Cc1cccc(-n2ccc(C(C)(C)O)n2)c1CNc1nc(NCC2CCNCC2)nc2c(C(C)C)cnn12 [Compound 232]

System: HCT116
Assay: Cellular HCT116 viability assay (CellTiter-Glo, 72 hours)
Type: cell-based
Settings: Homo sapiens, HCT-116
Experimental: as §1, §2

Row | IC50 [nM] | SMILES
5 | < 1000 | CC(C)c1cnn2c(NCc3c(Cl)cccc3Cl)nc(N3CCC(N)CC3)nc12 [Compound 257]
6 | < 1000 | CC(C)c1cnn2c(NCc3c(Cl)cccc3-n3cc(N4CCOCC4)cn3)nc(N3CCC(N)CC3)nc12 [Compound 203]
7 | < 1000 | Cc1cccc(-c2cc(CO)nn2C)c1CNc1nc(N2CCC(N)CC2)nc2c(C(C)C)cnn12 [Compound 214]
8 | 1000 to 10000 | Cc1cccc(-n2ccc(C(C)(C)O)n2)c1CNc1nc(NCC2CCNCC2)nc2c(C(C)C)cnn12 [Compound 232]

Molecular target: T1, CDK7/Cyclin H/MNAT1 (Homo sapiens, UniProt P50613)
T1 construct: purchased Invitrogen PR6749B
Assay: Enzymatic assay for CDK7 (FRET based LANCE Ultra kinase assay)
Type: biochemical
Settings: CDK1/CDK7
How it was run: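 Inhibition was measured at Km ATP by time-resolved FRET between a Eu anti-phospho antibody and a phosphorylated ULight peptide. The enzyme was the purified CDK7/cyclin complex, and data were curve-fitted.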

T1 sequence (P50613 whole entry): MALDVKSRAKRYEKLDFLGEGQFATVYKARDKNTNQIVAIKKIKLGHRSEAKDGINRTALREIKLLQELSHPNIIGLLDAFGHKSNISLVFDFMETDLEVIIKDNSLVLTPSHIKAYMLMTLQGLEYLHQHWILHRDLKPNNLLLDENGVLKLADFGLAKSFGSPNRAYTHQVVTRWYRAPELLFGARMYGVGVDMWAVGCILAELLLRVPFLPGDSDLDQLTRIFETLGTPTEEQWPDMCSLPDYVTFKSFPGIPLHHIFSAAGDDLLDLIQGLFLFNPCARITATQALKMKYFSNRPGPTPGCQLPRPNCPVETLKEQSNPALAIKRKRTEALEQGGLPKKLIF
T1 sequence (P51946 whole entry partner): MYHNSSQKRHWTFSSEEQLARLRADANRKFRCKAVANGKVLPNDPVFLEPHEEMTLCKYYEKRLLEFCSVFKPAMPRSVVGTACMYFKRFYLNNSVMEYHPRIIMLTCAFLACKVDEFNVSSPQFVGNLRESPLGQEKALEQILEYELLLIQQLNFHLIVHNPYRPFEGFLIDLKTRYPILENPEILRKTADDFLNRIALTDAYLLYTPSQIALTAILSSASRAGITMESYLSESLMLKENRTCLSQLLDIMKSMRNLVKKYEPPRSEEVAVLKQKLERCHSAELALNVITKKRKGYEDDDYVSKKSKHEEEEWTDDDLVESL
T1 sequence (P51948 whole entry partner): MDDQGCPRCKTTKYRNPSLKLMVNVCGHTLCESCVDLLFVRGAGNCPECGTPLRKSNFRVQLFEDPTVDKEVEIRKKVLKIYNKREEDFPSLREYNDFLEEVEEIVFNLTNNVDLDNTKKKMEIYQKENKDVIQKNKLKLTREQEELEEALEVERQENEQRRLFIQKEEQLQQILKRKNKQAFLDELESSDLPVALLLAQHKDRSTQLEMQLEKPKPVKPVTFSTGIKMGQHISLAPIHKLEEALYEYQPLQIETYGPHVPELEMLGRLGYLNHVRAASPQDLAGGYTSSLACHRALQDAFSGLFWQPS

Row | CDK1/CDK7: Selectivity of CDK7 inhibition over CDK1 inhibition | SMILES
9 | A (A=greater than 200 fold) | CC(C)c1cnn2c(NCc3c(Cl)cccc3Cl)nc(N3CCC(N)CC3)nc12 [Compound 257]

Same assay, conditions: CDK2/CDK7

Row | SMILES | CDK2/CDK7: Selectivity of CDK7 inhibition over CDK2 inhibition
10 | CC(C)c1cnn2c(NCc3c(Cl)cccc3Cl)nc(N3CCC(N)CC3)nc12 [Compound 257] | B (B=less than 200 fold, but greater than 20 fold)

Same assay, conditions: CDK5/CDK7

Row | SMILES | CDK5/CDK7: Selectivity of CDK7 inhibition over CDK5 inhibition
11 | CC(C)c1cnn2c(NCc3c(Cl)cccc3Cl)nc(N3CCC(N)CC3)nc12 [Compound 257] | B (B=less than 200 fold, but greater than 20 fold)

Same assay, conditions: CDK7 over CDK1

Row | CDK1/CDK7: Selectivity of CDK7 inhibition over CDK1 inhibition | SMILES
12 | A (A=greater than 200 fold) | CC(C)c1cnn2c(NCc3c(Cl)cccc3-n3cc(N4CCOCC4)cn3)nc(N3CCC(N)CC3)nc12 [Compound 203]
13 | A (A=greater than 200 fold) | Cc1cccc(-c2cc(CO)nn2C)c1CNc1nc(N2CCC(N)CC2)nc2c(C(C)C)cnn12 [Compound 214]
14 | A (A=greater than 200 fold) | Cc1cccc(-n2ccc(C(C)(C)O)n2)c1CNc1nc(NCC2CCNCC2)nc2c(C(C)C)cnn12 [Compound 232]

Same assay, conditions: CDK7 over CDK2

Row | CDK2/CDK7: Selectivity of CDK7 inhibition over CDK2 inhibition | SMILES
15 | A (A=greater than 200 fold) | CC(C)c1cnn2c(NCc3c(Cl)cccc3-n3cc(N4CCOCC4)cn3)nc(N3CCC(N)CC3)nc12 [Compound 203]
16 | A (A=greater than 200 fold) | Cc1cccc(-c2cc(CO)nn2C)c1CNc1nc(N2CCC(N)CC2)nc2c(C(C)C)cnn12 [Compound 214]
17 | A (A=greater than 200 fold) | Cc1cccc(-n2ccc(C(C)(C)O)n2)c1CNc1nc(NCC2CCNCC2)nc2c(C(C)C)cnn12 [Compound 232]

Same assay, conditions: CDK7 over CDK5

Row | CDK5/CDK7: Selectivity of CDK7 inhibition over CDK5 inhibition | SMILES
18 | A (A=greater than 200 fold) | CC(C)c1cnn2c(NCc3c(Cl)cccc3-n3cc(N4CCOCC4)cn3)nc(N3CCC(N)CC3)nc12 [Compound 203]
19 | A (A=greater than 200 fold) | Cc1cccc(-c2cc(CO)nn2C)c1CNc1nc(N2CCC(N)CC2)nc2c(C(C)C)cnn12 [Compound 214]
20 | A (A=greater than 200 fold) | Cc1cccc(-n2ccc(C(C)(C)O)n2)c1CNc1nc(NCC2CCNCC2)nc2c(C(C)C)cnn12 [Compound 232]

Same assay, conditions: read-out: CDK7 enzymatic activity (IC50 activity range)

Row | IC50 [nM] | SMILES
21 | < 100 | CC(C)c1cnn2c(NCc3c(Cl)cccc3Cl)nc(N3CCC(N)CC3)nc12 [Compound 257]

Same assay, conditions: read-out: CDK7 enzymatic activity (IC50 range)

Row | IC50 [nM] | SMILES
22 | < 100 | CC(C)c1cnn2c(NCc3c(Cl)cccc3-n3cc(N4CCOCC4)cn3)nc(N3CCC(N)CC3)nc12 [Compound 203]
23 | < 100 | Cc1cccc(-c2cc(CO)nn2C)c1CNc1nc(N2CCC(N)CC2)nc2c(C(C)C)cnn12 [Compound 214]
24 | < 100 | Cc1cccc(-n2ccc(C(C)(C)O)n2)c1CNc1nc(NCC2CCNCC2)nc2c(C(C)C)cnn12 [Compound 232]

Molecular target: T2, CDK1/Cyclin B (Homo sapiens, UniProt P06493)
T2 construct: purchased Invitrogen PR4768C
Assay: Enzymatic assay for CDK1 (FRET based LANCE Ultra kinase assay)
Type: biochemical
Settings: read-out: CDK1 enzymatic activity (IC50 activity range)
How it was run: (§3)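 LANCE Ultra TR-FRET: ULight-MBP peptide (68 nM) with ATP at Km, […], 60 min at 23° C. EDTA plus Eu-anti-phospho-MBP added, another 60 min, then 665/615 nm emission read. Compounds tested as 8-dose 4-fold DMSO dilutions.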

T2 sequence (P06493 whole entry): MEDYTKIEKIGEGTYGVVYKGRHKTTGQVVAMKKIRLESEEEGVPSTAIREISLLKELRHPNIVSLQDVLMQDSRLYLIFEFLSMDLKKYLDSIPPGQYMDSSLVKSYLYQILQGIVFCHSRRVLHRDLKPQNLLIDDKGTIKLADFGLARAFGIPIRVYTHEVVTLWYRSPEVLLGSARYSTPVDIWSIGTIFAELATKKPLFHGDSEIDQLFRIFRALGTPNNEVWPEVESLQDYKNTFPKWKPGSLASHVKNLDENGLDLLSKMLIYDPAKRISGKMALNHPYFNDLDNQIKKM
T2 sequence (P14635 whole entry partner): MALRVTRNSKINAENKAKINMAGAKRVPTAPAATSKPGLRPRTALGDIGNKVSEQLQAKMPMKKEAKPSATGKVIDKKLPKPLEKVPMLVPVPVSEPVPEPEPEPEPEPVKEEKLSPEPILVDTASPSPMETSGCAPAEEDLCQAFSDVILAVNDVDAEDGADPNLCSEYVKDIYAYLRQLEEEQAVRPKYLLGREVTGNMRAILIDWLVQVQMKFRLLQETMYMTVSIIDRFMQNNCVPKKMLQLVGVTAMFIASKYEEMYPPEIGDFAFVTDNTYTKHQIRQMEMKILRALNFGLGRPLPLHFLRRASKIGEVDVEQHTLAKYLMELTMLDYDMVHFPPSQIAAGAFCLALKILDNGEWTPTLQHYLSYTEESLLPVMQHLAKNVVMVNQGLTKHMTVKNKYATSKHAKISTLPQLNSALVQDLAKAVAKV

Row | IC50 [nM] | SMILES
25 | > 1000 | CC(C)c1cnn2c(NCc3c(Cl)cccc3Cl)nc(N3CCC(N)CC3)nc12 [Compound 257]

Same assay, conditions: read-out: CDK1 enzymatic activity (IC50 range)

Row | IC50 [nM] | SMILES
26 | > 1000 | CC(C)c1cnn2c(NCc3c(Cl)cccc3-n3cc(N4CCOCC4)cn3)nc(N3CCC(N)CC3)nc12 [Compound 203]
27 | > 1000 | Cc1cccc(-c2cc(CO)nn2C)c1CNc1nc(N2CCC(N)CC2)nc2c(C(C)C)cnn12 [Compound 214]
28 | > 1000 | Cc1cccc(-n2ccc(C(C)(C)O)n2)c1CNc1nc(NCC2CCNCC2)nc2c(C(C)C)cnn12 [Compound 232]

Molecular target: T3, CDK2/Cyclin A (Homo sapiens, UniProt P24941)
T3 construct: purchased Invitrogen PV6290
Assay: Enzymatic assay for CDK2 (FRET based LANCE Ultra kinase assay)
Type: biochemical
Settings: read-out: CDK2 enzymatic activity (IC50 activity range)
How it was run: as §3

Row | IC50 [nM] | SMILES
29 | 100 to 1000 | CC(C)c1cnn2c(NCc3c(Cl)cccc3Cl)nc(N3CCC(N)CC3)nc12 [Compound 257]

Same assay, conditions: read-out: CDK2 enzymatic activity (IC50 range)

Row | IC50 [nM] | SMILES
30 | > 1000 | CC(C)c1cnn2c(NCc3c(Cl)cccc3-n3cc(N4CCOCC4)cn3)nc(N3CCC(N)CC3)nc12 [Compound 203]
31 | > 1000 | Cc1cccc(-c2cc(CO)nn2C)c1CNc1nc(N2CCC(N)CC2)nc2c(C(C)C)cnn12 [Compound 214]
32 | > 1000 | Cc1cccc(-n2ccc(C(C)(C)O)n2)c1CNc1nc(NCC2CCNCC2)nc2c(C(C)C)cnn12 [Compound 232]

Molecular target: T4, CDK5/p25 (Homo sapiens, UniProt Q00535)
T4 construct: purchased Invitrogen PR8543B
Assay: Enzymatic assay for CDK5 (FRET based LANCE Ultra kinase assay)
Type: biochemical
Settings: read-out: CDK5 enzymatic activity (IC50 activity range)
How it was run: as §3

T4 sequence (Q00535 whole entry): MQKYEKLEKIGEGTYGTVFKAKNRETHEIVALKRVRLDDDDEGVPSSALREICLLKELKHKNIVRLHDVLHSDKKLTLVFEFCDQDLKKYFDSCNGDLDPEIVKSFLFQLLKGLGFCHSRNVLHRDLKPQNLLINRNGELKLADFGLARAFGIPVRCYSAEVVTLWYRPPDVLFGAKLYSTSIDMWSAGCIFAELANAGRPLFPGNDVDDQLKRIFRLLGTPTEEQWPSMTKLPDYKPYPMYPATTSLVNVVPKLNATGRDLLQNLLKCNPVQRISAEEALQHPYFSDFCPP
T4 sequence (Q15078 99-307 partner limits assumed): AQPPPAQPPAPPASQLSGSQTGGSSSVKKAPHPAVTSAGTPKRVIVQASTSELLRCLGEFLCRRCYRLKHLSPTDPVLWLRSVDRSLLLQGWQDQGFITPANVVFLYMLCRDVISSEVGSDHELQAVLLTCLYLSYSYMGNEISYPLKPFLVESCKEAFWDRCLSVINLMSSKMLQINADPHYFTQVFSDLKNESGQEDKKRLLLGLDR

Row | IC50 [nM] | SMILES
33 | 100 to 1000 | CC(C)c1cnn2c(NCc3c(Cl)cccc3Cl)nc(N3CCC(N)CC3)nc12 [Compound 257]

Same assay, conditions: read-out: CDK5 enzymatic activity (IC50 range)

Row | IC50 [nM] | SMILES
34 | > 1000 | CC(C)c1cnn2c(NCc3c(Cl)cccc3-n3cc(N4CCOCC4)cn3)nc(N3CCC(N)CC3)nc12 [Compound 203]
35 | > 1000 | Cc1cccc(-c2cc(CO)nn2C)c1CNc1nc(N2CCC(N)CC2)nc2c(C(C)C)cnn12 [Compound 214]
36 | > 1000 | Cc1cccc(-n2ccc(C(C)(C)O)n2)c1CNc1nc(NCC2CCNCC2)nc2c(C(C)C)cnn12 [Compound 232]

System: H460
Assay: Cellular H460 viability assay (CellTiter-Glo, 72 hours)
Type: cell-based
Settings: Homo sapiens, NCI-H460
How it was run: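 Luminescent ATP read-out (CellTiter-Glo) after 72 h compound exposure at 37 °C/5% CO2; duplicate wells; vehicle control DMSO <0.1% final; seeding density set per cell line.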

Row | IC50 [nM] | SMILES
37 | < 1000 | CC(C)c1cnn2c(NCc3c(Cl)cccc3Cl)nc(N3CCC(N)CC3)nc12 [Compound 257]
38 | < 1000 | CC(C)c1cnn2c(NCc3c(Cl)cccc3-n3cc(N4CCOCC4)cn3)nc(N3CCC(N)CC3)nc12 [Compound 203]
39 | < 1000 | Cc1cccc(-c2cc(CO)nn2C)c1CNc1nc(N2CCC(N)CC2)nc2c(C(C)C)cnn12 [Compound 214]
40 | 1000 to 10000 | Cc1cccc(-n2ccc(C(C)(C)O)n2)c1CNc1nc(NCC2CCNCC2)nc2c(C(C)C)cnn12 [Compound 232]
